# Measured values as given in publication PMC12525657 (Molecules, 2025).
# Molecular target: NP (Influenza A virus, UniProt P15682)
# Assay: biochemical
# Assay type: binding
# NP, sequence (P15682 whole entry): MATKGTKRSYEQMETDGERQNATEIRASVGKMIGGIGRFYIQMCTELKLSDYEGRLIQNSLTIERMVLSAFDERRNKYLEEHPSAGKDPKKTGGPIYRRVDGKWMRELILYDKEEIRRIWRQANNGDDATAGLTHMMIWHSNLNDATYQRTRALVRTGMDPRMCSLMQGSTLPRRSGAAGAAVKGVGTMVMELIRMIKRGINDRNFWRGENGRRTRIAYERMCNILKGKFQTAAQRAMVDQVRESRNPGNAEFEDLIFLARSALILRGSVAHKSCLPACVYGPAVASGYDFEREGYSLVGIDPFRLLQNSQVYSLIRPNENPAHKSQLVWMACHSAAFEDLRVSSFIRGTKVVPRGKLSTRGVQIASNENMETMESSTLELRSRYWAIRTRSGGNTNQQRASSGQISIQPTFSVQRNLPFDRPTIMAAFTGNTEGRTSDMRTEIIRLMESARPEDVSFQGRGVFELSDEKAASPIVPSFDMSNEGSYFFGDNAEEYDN
Structure (SMILES),Kd,binding affinity for NP relative to nucleozin
COc1ccc(C2CC(c3c(-c4ccccc4)c4cc(Cl)ccc4[nH]c3=O)=NN2C(=O)CCC(=O)O)cc1 (centres unmarked) [Compound 8],78.5 µM,higher binding affinity for NP than nucleozin
O=C(O)CCCC(=O)Nc1nc2n(n1)[C@H](c1ccccc1)C=C(c1ccc(Cl)cc1)N2 [Compound 14],69.7 µM,higher binding affinity for NP than nucleozin
COc1ccc([C@H]2CC(c3c(-c4ccccc4)c4cc(Br)ccc4[nH]c3=O)=NN2C(=O)CCC(=O)O)cc1 [Compound 3],210 µM,higher binding affinity for NP than nucleozin
Cc1ccc([C@@H]2C=C(c3ccc(Cl)cc3)Nc3nc(NC(=O)CCCC(=O)O)nn32)cc1 [Compound 4],–,higher binding affinity for NP than nucleozin
O=C(O)CCC(=O)Nc1nc2n(n1)C(c1ccc(Cl)cc1)C=C(c1ccc(Cl)cc1)N2 (centres unmarked) [Compound 13],38.2 µM,higher binding affinity for NP than nucleozin
O=C(O)CCC(=O)N1N=C(c2c(-c3ccccc3)c3cc(Br)ccc3[nH]c2=O)C[C@@H]1c1ccc([N+](=O)[O-])cc1 [Compound 9],–,higher binding affinity for NP than nucleozin
O=C(O)CCC(=O)N1N=C(c2c(O)nc3ccc(Br)cc3c2-c2ccccc2)CC1c1ccco1 (centres unmarked) [Compound 1],150 µM,higher binding affinity for NP than nucleozin
COc1ccc([C@@H]2C=C(c3ccc(Cl)cc3)Nc3nc(NC(=O)CCCC(=O)O)nn32)cc1 [Compound 12],–,higher binding affinity for NP than nucleozin
"Cc1onc(-c2ccccc2)c1C(=O)N1CCN(c2ccc([N+](=O)[O-])cc2Cl)CC1 [nucleozin, reference compound]",9.73 µM,–
